Assay results as given in patent US7838674B2, “Tetracyclic lactame derivatives” (Novartis AG, priority 2007, dated 2010).
Where a name gives a salt, the structure may show the parent alone.

Biological target: T1, MAPKAPK2 enzyme (HIS-MK2, Invitrogen PV4019) (Homo sapiens, UniProt P49137)
T1 construct: His; purchased Invitrogen PV4019
Assay: Alternative MAPKAPK2 assay (Caliper microfluidic mobility shift, HSP27-peptide)
Type: biochemical
Conditions: HIS-MK2 0.013 nM, ATP 10 μM, 60 min at 30° C.

T1 sequence (P49137 whole entry): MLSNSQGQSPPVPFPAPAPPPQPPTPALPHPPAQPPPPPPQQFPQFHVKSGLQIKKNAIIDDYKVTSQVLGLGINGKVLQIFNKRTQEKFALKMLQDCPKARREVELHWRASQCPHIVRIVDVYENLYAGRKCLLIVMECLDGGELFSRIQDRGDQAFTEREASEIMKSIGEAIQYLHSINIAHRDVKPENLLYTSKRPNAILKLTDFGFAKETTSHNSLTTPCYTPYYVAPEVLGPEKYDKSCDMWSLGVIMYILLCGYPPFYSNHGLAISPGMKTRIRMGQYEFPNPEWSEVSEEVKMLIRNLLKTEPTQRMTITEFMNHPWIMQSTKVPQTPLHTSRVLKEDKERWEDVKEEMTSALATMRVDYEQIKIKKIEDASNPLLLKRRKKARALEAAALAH

Row | Compound | IC50
1 | O=C1NC2(CC2)Cc2[nH]c3c(c21)CCc1cnc(-c2ccc(N4CCNCC4)cc2)cc1-3 [Example 216, 2-(1-Amino-cyclopropylmethyl)-8-(4-piperazin-1-yl-phenyl)-4,5-dihydro-1H-pyrrolo[2,3-f]isoquinoline-3-carboxylic acid lactam hydrochloride] | 18 nM
2 | C#Cc1cc(-c2cc3c(cn2)CCc2c-3[nH]c3c2C(=O)NCC32CC2)ccc1OC [Example 120, 2-(1-Aminomethyl-cyclopropyl)-8-(3-ethynyl-4-methoxy-phenyl)-4,5-dihydro-1H-pyrrolo[2,3-f]isoquinoline-3-carboxylic acid lactam] | 40 nM
3 | COc1ccc(-c2ncc3c(n2)-c2c(c4c(n2C)CC2(CNC2)NC4=O)CC3)cc1 [Example 131, 2-(3-Amino-azetidin-3-ylmethyl)-8-(4-methoxy-phenyl)-1-methyl-4,5-dihydro-1H-1,7,9-triaza-cyclopenta[a]naphthalene-3-carboxylic acid lactam hydrochloride] | 6 nM
4 | COc1cncc(-c2cc3c(cn2)CCc2c-3[nH]c3c2C(=O)NCC32CC2)c1 [Example 55, 2-(1-Aminomethyl-cyclopropyl)-8-(5-methoxy-pyridin-3-yl)-4,5-dihydro-1H-pyrrolo[2,3-f]isoquinoline-3-carboxylic acid lactam] | 11 nM
5 | Cn1c2c(c3c1C1(CNC1)C1(CC1)NC3=O)CCc1cnc(-c3cccc(F)c3)cc1-2 [Example 209, 2-[3-(1-Amino-cyclopropyl)-azetidin-3-yl]-8-(3-fluoro-phenyl)-1-methyl-4,5-dihydro-1H-pyrrolo[2,3-f]isoquinoline-3-carboxylic acid lactam hydrochloride] | 3 nM
6 | CN1CC2(CNC(=O)c3c4c(n(C)c32)-c2cc(-c3cccc(Cl)c3)ncc2CC4)C1 [Example 190, 2-[3-Aminomethyl-1-methyl-azetidin-3-yl]-8-(3-chloro-phenyl)-1-methyl-4,5-dihydro-1H-pyrrolo[2,3-f]isoquinoline-3-carboxylic acid lactam] | 7 nM
7 | O=C1NC2(CC2)Cc2[nH]c3c(c21)CCc1cnc(-c2ccc(CN4CCCCC4)cc2)cc1-3 [Example 65, 2-(1-Amino-cyclopropylmethyl)-8-(4-piperidin-1-ylmethyl-phenyl)-4,5-dihydro-1H-pyrrolo[2,3-f]isoquinoline-3-carboxylic acid lactam] | 46 nM
8 | Cn1c2c(c3c1-c1cc(-c4ccc(N5CCCCC5)nc4)ncc1CC3)C(=O)NC1(CNC1)C2 [Example 149, 2-(3-Amino-azetidin-3-ylmethyl)-8-(6-piperidinyl-pyridin-3-yl)-1-methyl-4,5-dihydro-1H-pyrrolo[2,3-f]isoquinoline-3-carboxylic acid lactam hydrochloride] | 23 nM
9 | Cn1c2c(c3c1-c1cc(-c4cncc(-c5ccccc5F)c4)ncc1CC3)C(=O)NC1(CNC1)C2 [Example 135, 2-(3-Amino-azetidin-3-ylmethyl)-8-[5-(2-fluoro-phenyl)-pyridin-3-yl]-1-methyl-4,5-dihydro-1H-pyrrolo[2,3-f]isoquinoline-3-carboxylic acid lactam hydrochloride] | 32 nM
10 | COCCN1CC2(CNC(=O)c3c2[nH]c2c3CCc3cnc(-c4cccc(Cl)c4)cc3-2)C1 [Example 181, 2-[3-Aminomethyl-1-(2-methoxy-ethyl)-azetidin-3-yl]-8-(3-chloro-phenyl)-4,5-dihydro-1H-pyrrolo[2,3-f]isoquinoline-3-carboxylic acid lactam] | 79 nM
11 | CN1CCN(c2c(F)cc(-c3cc4c(cn3)CCc3c-4[nH]c4c3C(=O)NCC43CC3)cc2C#N)CC1 [Example 317, 3-Fluoro-2-(4-methyl-piperazin-1-yl)-10-spirocyclopropyl-5-(7-oxo-6,7,8,9,10,11-hexahydro-5H-3,8,11-triaza-benzo[a]fluoren-2-yl)-benzonitrile] | 51 nM
12 | CN1CC2(C1)c1[nH]c3c(c1C(=O)NC21CC1)CCc1cnc(-c2cccc(F)c2)cc1-3 [Example 208, 2-[3-(1-Amino-cyclopropyl)-1-methyl-azetidin-3-yl]-8-(3-fluoro-phenyl)-4,5-dihydro-1H-pyrrolo[2,3-f]isoquinoline-3-carboxylic acid lactam] | < 3 nM
13 | COc1ccc(-c2ncc3c(n2)-c2c(c4c(n2C)C2(CNC4=O)CN(C)C2)CC3)cc1 [Example 219, 2-(3-Aminomethyl-1-methyl-azetidin-3-yl)-8-(4-methoxy-phenyl)-1-methyl-4,5-dihydro-1H-1,7,9-triaza-cyclopenta[a]naphthalene-3-carboxylic acid lactam] | 20 nM
14 | CN1CCOc2cc(-c3cc4c(cn3)CCc3c-4[nH]c4c3C(=O)NCC43CC3)ccc21 [Example 130, 2-(1-Aminomethyl-cyclopropyl)-8-(4-methyl-3,4-dihydro-2H-benzo[1,4]oxazin-7-yl)-4,5-dihydro-1H-pyrrolo[2,3-f]isoquinoline-3-carboxylic acid lactam] | 45 nM
15 | N#Cc1cc(-c2cc3c(cn2)CCc2c-3[nH]c3c2C(=O)NCC32CC2)ccc1F [Example 115] | 36 nM
16 | O=C1NC2(CC2)C2(CNC2)c2[nH]c3c(c21)CCc1cnc(-c2cccc(F)c2)cc1-3 [Example 180, 2-[3-(1-Amino-cyclopropyl)-azetidin-3-yl]-8-(3-fluoro-phenyl)-4,5-dihydro-1H-pyrrolo[2,3-f]isoquinoline-3-carboxylic acid lactam hydrochloride] | < 3 nM
17 | Cn1c2c(c3c1-c1cc(-c4cccc(C#N)c4)ncc1CC3)C(=O)NC1(CNC1)C2 [Example 132, 2-(3-Amino-azetidin-3-ylmethyl)-8-(3-cyano-phenyl)-1-methyl-4,5-dihydro-1H-pyrrolo[2,3-f]isoquinoline-3-carboxylic acid lactam hydrochloride] | 14 nM
18 | O=C1NC2(CNC2)Cc2[nH]c3c(c21)CCc1cnc(-c2cccc(Br)c2)nc1-3 [Example 285, 2-(3-Amino-azetidin-3-ylmethyl)-8-(3-bromo-phenyl)-4,5-dihydro-1H-1,7,9-triaza-cyclopenta[a]naphthalene-3-carboxylic acid lactam hydrochloride] | 7 nM
19 | CN1CC2(C1)c1[nH]c3c(c1C(=O)NC21CC1)CCc1cnc(-c2ccc(F)nc2)cc1-3 [Example 223, 2-[3-(1-Amino-cyclopropyl)-1-methyl-azetidin-3-yl]-8-(6-fluoro-pyridin-3-yl)-4,5-dihydro-1H-pyrrolo[2,3-f]isoquinoline-3-carboxylic acid lactam] | < 3 nM
20 | CN1CC2(CNC(=O)c3c2[nH]c2c3CCc3cnc(-c4cccc(Cl)c4)cc3-2)C1 [Example 188, 2-[3-Aminomethyl-1-methyl-azetidin-3-yl]-8-(3-chloro-phenyl)-4,5-dihydro-1H-pyrrolo[2,3-f]isoquinoline-3-carboxylic acid lactam] | < 3 nM
21 | CN1CC2(C1)c1[nH]c3c(c1C(=O)NC21CC1)CCc1cnc(-c2cccc(Cl)c2)cc1-3 [Example 224, 2-[3-(1-Amino-cyclopropyl)-1-methyl-azetidin-3-yl]-8-(3-chlorophenyl)-4,5-dihydro-1H-pyrrolo[2,3-f]isoquinoline-3-carboxylic acid lactam] | < 3 nM
22 | CC(C)N1CCN(c2ccc(-c3cc4c(cn3)CCc3c-4[nH]c4c3C(=O)NCC43CC3)cc2C#N)CC1 [Example 314, 2-(4-Isopropyl-piperazin-1-yl)-10-spirocyclopropyl-5-(7-oxo-6,7,8,9,10,11-hexahydro-5H-3,8,11-triaza-benzo[a]fluoren-2-yl)-benzonitrile] | 12 nM
23 | CC(C)(N)C#Cc1ccc(-c2cc3c(cn2)CCc2c-3[nH]c3c2C(=O)NC2(CC2)C3)cc1 [Example 82, 2-(1-Amino-cyclopropylmethyl)-8-[4-(3-amino-3-methyl-but-1-ynyl)-phenyl]-4,5-dihydro-1H-pyrrolo[2,3-f]isoquinoline-3-carboxylic acid lactam] | 24 nM
24 | Cn1c2c(c3c1-c1cc(-c4ccc(F)nc4)ncc1CC3)C(=O)NC1(CNC1)C2 [Example 134, 2-(3-Amino-azetidin-3-ylmethyl)-8-(6-fluoro-pyridin-3-yl)-1-methyl-4,5-dihydro-1H-pyrrolo[2,3-f]isoquinoline-3-carboxylic acid lactam hydrochloride] | 20 nM
25 | O=C1NCC2(CCC2)c2[nH]c3c(c21)CCc1cnc(-c2ccc(CN4CCOCC4)c(F)c2)cc1-3 [Example 298, 2-(3-Fluoro-4-morpholin-4-ylmethyl-phenyl)-10-spirocyclobutyl-5,6,8,9,10,11-exahydro-3,8,11-triaza-benzo[a]fluoren-7-one] | 20 nM
26 | COc1ccc(-c2cc3c(cn2)CCc2c4c(n(C)c2-3)C2(CNC2)CNC4=O)cc1 [Example 163, 2-(3-Aminomethyl-azetidin-3-yl)-8-(4-methoxy-phenyl)-1-methyl-4,5-dihydro-1H-pyrrolo[2,3-f]isoquinoline-3-carboxylic acid lactam hydrochloride] | 6 nM
27 | O=C1NCC2(CC2)c2[nH]c3c(c21)CCc1cnc(-c2cccnc2)cc1-3 [Example 125, 2-(1-Aminomethyl-cyclopropyl)-8-pyridin-3-yl-4,5-dihydro-1H-pyrrolo[2,3-f]isoquinoline-3-carboxylic acid lactam] | 16 nM
28 | CN(C)C1CCN(c2ccc(-c3cc4c(cn3)CCc3c-4[nH]c4c3C(=O)NCC43CC3)cc2C#N)C1 (stereo not drawn) [Example 318, 2-(3-Dimethylamino-pyrrolidin-1-yl)-10-spirocyclopropyl-5-(7-oxo-6,7,8,9,10,11-hexahydro-5H-3,8,11-triaza-benzo[a]fluoren-2-yl)-benzonitrile] | 6 nM
29 | CN1CCN(c2ccc(-c3cc4c(cn3)CCc3c-4[nH]c4c3C(=O)NCC43CC3)cn2)CC1 [Example 316, 2-[6-(4-Methyl-piperazin-1-yl)-pyridin-3-yl]-10-spirocyclopropyl-5,6,8,9,10,11-hexahydro-3,8,11-triaza-benzo[a]fluoren-7-one] | 11 nM
30 | CC(C)(O)CCc1ccc(-c2cc3c(cn2)CCc2c-3[nH]c3c2C(=O)NCC32CC2)cc1 [Example 126, 2-(1-Aminomethyl-cyclopropyl)-8-[4-(3-hydroxy-3-methyl-butyl)-phenyl]-4,5-dihydro-1H-pyrrolo[2,3-f]isoquinoline-3-carboxylic acid lactam] | 34 nM
